Results as given in patent publication US9242945B2, “Substituted 2-benzylidene-2H-benzo[b][1,4]thiazin-3(4H)-ones, derivatives thereof, and therapeutic uses thereof” (TEMPLE UNIVERSITY—OF THE COMMONWEALTH SYSTEM OF HIGHER …, priority 2011, dated 2016).

Columns and labels:
[1] = test system: K562 (chronic myelogenous leukemia; leukemia cell line +ve for Bcr-Abl); assay: Cytotoxicity assay, K562 tumor cells; format: cell-based; details: Homo sapiens
Experimental: The effect of the compounds of the invention on tumor cells was determined by the assay described by Latham et al., Oncogene 12:827-837 (1996). Tumor cells K562 (chronic myelogenous leukemia; leukemia cell line +ve for Bcr-Abl) or DU145 (prostate cancer) were plated in 12-well dishes at a cell density of 2.5×10^4 cells well. The plated cells were treated 24 hours later with a compound of the invention dissolved in DMSO at multiple concentrations ranging from 0.01 μM to 100 μM. The plates were examined 96 hours later under an inverted microscope, Olympus CK-2 using a 10× objective, and compound activity was noted by physical observation. When necessary, the total number of viable cells was determined by trypsinizing the wells and counting the number of viable cells, as determined by trypan blue exclusion, using a hemacytometer. Where “Lower” and “Upper” value are provided in Table 5, the IC50 was determined to be within that range. When only a “Lower” value is provided and no “Upper” value is listed, the IC50 was that value, or less than or greater than that value, as set forth in the Table.
(§1) The cytotoxicity of Compound 42, (Z)-6-((2,6-dichlorobenzyl)sulfonyl)-2-(4-hydroxy-3-nitrobenzylidene)-2H-benzo[b][1,4]thiazin-3(4H)-one, was determined according the assay method of Example 7 on the prostate (androgen dependent or independent), breast and pancreatic cancer cell lines listed in Table 6A, below, and the additional cell lines listed in Table 6B, below. The human mesenchymal stem cell line HMSC.hTERT and normal human fibroblast cell line HFL was included in the test.

MDA.MB-231 = assay: Cancer cell cytotoxicity assay, MDA.MB-231; format: cell-based; details: Homo sapiens; MDA.MB-231, Breast Cancer
Experimental: (§2) The effect of the compounds of the invention on tumor cells was determined by the assay described by Latham et al., Oncogene 12:827-837 (1996). Tumor cells K562 (chronic myelogenous leukemia; leukemia cell line +ve for Bcr-Abl) or DU145 (prostate cancer) were plated in 12-well dishes at a cell density of 2.5×10^4 cells well. The plated cells were treated 24 hours later with a compound of the invention dissolved in DMSO at multiple concentrations ranging from 0.01 μM to 100 μM. The plates were examined 96 hours later under an inverted microscope, Olympus CK-2 using a 10× objective, and compound activity was noted by physical observation. When necessary, the total number of viable cells was determined by trypsinizing the wells and counting the number of viable cells, as determined by trypan blue exclusion, using a hemacytometer. Where “Lower” and “Upper” value are provided in Table 5, the IC50 was determined to be within that range. […]
as §1, with “The human mesenchymal stem cell line HMSC.hTERT and normal human fibroblast cell line HFL was included in the test.” left out

MiaPaca 2 = assay: Cancer cell cytotoxicity assay, MiaPaca 2; format: cell-based; details: Homo sapiens, MIA PaCa-2; MiaPaca 2, Pancreatic Cancer
Experimental: as §2
as §1, with “The human mesenchymal stem cell line HMSC.hTERT and normal human fibroblast cell line HFL was included in the test.” left out

22Rv1 = assay: Cancer cell cytotoxicity assay, 22Rv1; format: cell-based; details: Homo sapiens; 22Rv1, Prostate Cancer
Experimental: as §2
as §1, with “The human mesenchymal stem cell line HMSC.hTERT and normal human fibroblast cell line HFL was included in the test.” left out

VCAP = assay: Cancer cell cytotoxicity assay, VCAP; format: cell-based; details: Homo sapiens, Prostate Cancer
Experimental: as §2
as §1, with “The human mesenchymal stem cell line HMSC.hTERT and normal human fibroblast cell line HFL was included in the test.” left out

RPWE-1 = assay: Cancer cell cytotoxicity assay, RPWE-1; format: cell-based; details: RPWE-1, Normal prostate epithelium
Experimental: as §2
as §1, with “The human mesenchymal stem cell line HMSC.hTERT and normal human fibroblast cell line HFL was included in the test.” left out

MCF10A = assay: Cytotoxicity assay, MCF10A; format: cell-based; details: Homo sapiens, MCF-10A, Normal Breast
Experimental: as §2
as §1, with “The human mesenchymal stem cell line HMSC.hTERT and normal human fibroblast cell line HFL was included in the test.” left out

H23 = assay: Cancer cell cytotoxicity assay, H23; format: cell-based; details: Homo sapiens, NCI-H23; H23, Non-small cell lung cancer
Experimental: as §2
as §1, with “The human mesenchymal stem cell line HMSC.hTERT and normal human fibroblast cell line HFL was included in the test.” left out

HCT-116 = assay: Cancer cell cytotoxicity assay, HCT-116; format: cell-based; details: Homo sapiens; HCT-116, Colon cancer
Experimental: as §2
as §1, with “The human mesenchymal stem cell line HMSC.hTERT and normal human fibroblast cell line HFL was included in the test.” left out

Z138C = assay: Cancer cell cytotoxicity assay, Z138C; format: cell-based; details: Mantle cell lymphoma
Experimental: as §2
as §1, with “The human mesenchymal stem cell line HMSC.hTERT and normal human fibroblast cell line HFL was included in the test.” left out

U266B1 = assay: Cancer cell cytotoxicity assay, U266B1; format: cell-based; details: U266B1, Multiple Myeloma
Experimental: as §2
as §1, with “The human mesenchymal stem cell line HMSC.hTERT and normal human fibroblast cell line HFL was included in the test.” left out

CK2α2 = target: T1, CK2α2 (Homo sapiens, UniProt P19784); assay: Casein kinase 2 inhibition, CK2α2 subunit (32P-ATP kinase assay); format: biochemical; details: 20 μM cold ATP; 30 min preincubation, 20 min at 30° C.
T1 construct: CK2α2 (human full length protein; Invitrogen PV3624); purchased Invitrogen PV3624
T1 sequence (P19784 whole entry): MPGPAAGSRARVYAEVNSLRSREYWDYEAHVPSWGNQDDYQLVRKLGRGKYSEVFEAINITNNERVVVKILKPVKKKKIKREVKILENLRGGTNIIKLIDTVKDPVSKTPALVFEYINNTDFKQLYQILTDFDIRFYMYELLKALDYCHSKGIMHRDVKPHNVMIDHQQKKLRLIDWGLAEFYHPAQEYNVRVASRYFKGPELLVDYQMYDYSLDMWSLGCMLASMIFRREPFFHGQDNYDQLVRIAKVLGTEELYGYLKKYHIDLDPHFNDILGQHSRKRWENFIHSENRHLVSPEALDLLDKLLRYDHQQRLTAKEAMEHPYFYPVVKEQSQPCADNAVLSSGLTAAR
Experimental: The ability of Compound 42 to inhibit the activity of casein kinase 2 (CK2) was determined as follows using the catalytic CK2 subunits CK2α and CK2α2. Two and one half nanograms of CK2α (human full length protein; Invitrogen PV3248), 2.5 ng of a CK2α form containing amino acids 3-339) or 10 ng of CK2α2 (human full length protein; Invitrogen PV3624) was diluted into kinase buffer (20 mM Tris pH 7.5, 10 mM MgCl2, 0.01% NP-40, 1 mM EGTA, 2 mM DTT) and incubated with varying concentrations of Compound 42 at room temperature for 30 minutes. Kinase reactions were initiated by the addition of 1 μg of CK2 substrate α-synuclein or 40 μM CK2 synthetic peptide substrate (AnaSpec, San Jose, Calif.), 20 μM cold ATP, and 20 μCi γ-^32P-ATP. The reactions were incubated at 30° C. for 20 minutes, terminated by the addition of 2× Laemmle sample buffer, boiled for 2 minutes, resolved by 12% acrylamide SDS-PAGE, and subjected to autoradiography.

CDK9 = target: T2, CDK9 (Homo sapiens, UniProt P50750); assay: CDK9 inhibition (32P-ATP kinase assay); format: biochemical; details: PDKtide substrate, 20 μM cold ATP
T2 construct: CDK9 (human full length protein; Invitrogen PV4335); purchased Invitrogen PV4335
T2 sequence (P50750 whole entry): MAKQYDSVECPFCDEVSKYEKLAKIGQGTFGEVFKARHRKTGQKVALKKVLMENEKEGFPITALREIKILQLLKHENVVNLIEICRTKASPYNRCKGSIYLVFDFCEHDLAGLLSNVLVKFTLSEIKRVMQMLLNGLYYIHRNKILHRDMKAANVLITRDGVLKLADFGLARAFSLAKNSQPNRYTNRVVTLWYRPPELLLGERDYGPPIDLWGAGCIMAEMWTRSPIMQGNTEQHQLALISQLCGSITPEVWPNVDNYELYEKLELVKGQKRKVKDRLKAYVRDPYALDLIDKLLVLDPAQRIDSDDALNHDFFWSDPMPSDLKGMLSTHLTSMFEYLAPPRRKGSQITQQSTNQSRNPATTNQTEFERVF
T2 sequence (O75909 whole entry partner): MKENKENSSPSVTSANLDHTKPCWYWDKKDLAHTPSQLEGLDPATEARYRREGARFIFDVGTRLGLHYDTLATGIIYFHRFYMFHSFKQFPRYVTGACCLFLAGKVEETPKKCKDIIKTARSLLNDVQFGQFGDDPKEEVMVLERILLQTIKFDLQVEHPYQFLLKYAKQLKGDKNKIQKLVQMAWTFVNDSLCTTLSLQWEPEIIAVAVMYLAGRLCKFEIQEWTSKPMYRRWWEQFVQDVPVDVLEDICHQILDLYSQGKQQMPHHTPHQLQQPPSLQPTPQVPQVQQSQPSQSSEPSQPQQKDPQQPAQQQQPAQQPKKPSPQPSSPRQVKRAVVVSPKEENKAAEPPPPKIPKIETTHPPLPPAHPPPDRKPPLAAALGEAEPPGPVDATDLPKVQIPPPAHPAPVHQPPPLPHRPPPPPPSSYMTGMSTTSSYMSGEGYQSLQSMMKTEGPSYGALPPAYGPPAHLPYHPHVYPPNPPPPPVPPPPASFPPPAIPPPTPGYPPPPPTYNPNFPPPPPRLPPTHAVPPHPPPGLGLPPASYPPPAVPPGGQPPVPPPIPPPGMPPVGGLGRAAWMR
Experimental: The ability of Compound 42 to inhibit the activity of the kinase CDK9 was determined as follows. Twenty-five nanograms of CDK9 (human full length protein; Invitrogen PV4335) was diluted into kinase buffer (20 mM Tris pH 7.5, 10 mM MgCl2, 0.01% NP-40, 1 mM EGTA, 2 mM DTT) and incubated with varying concentrations of Compound 42 at room temperature for 30 minutes. The kinase reactions were initiated by the addition of 20 μM of CDK9/Cyclin K specific synthetic peptide substrate (PDKtide, P10-58, SignalChem), 20 μM cold ATP, and 20 μCi γ-32P-ATP. The reactions were incubated at 30° C. for 20 minutes and terminated by the addition of 0.5M o-Phosphoric acid. 10 μl of the reaction mixture was spotted on a P-30 Filtermat (PerkinElmer) and developed using autoradiography or phosphorimaging.

PIM1 = target: T3, PIM1 (Homo sapiens, UniProt P11309); assay: PIM1 inhibition (32P-ATP kinase assay); format: biochemical; details: K9 Peptide substrate, 20 μM cold ATP
T3 construct: PIM1 (human full length protein; Invitrogen PV3503); purchased Invitrogen PV3503
T3 sequence (P11309 whole entry): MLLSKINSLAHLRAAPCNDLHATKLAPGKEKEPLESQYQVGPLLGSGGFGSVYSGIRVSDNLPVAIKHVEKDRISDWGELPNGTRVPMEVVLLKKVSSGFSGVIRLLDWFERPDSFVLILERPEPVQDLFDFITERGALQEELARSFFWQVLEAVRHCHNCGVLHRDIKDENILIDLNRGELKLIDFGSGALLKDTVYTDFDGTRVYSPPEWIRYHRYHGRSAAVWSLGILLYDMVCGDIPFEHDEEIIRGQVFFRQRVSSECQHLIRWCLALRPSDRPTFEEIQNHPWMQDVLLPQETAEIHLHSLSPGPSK
Experimental: The ability of Compound 42 to inhibit the activity of the kinase proto-ocogene pim-was determined as follows. Ten nanograms of PIM1 (human full length protein; Invitrogen PV3503) was diluted into kinase buffer (20 mM Tris pH 7.5, 10 mM MgCl2, 0.01% NP-40, 1 mM EGTA, 2 mM DTT) and incubated with varying concentrations of Compound 42 at room temperature for 30 minutes. The kinase reactions were initiated by the addition of 20 μM of PIM1 specific synthetic peptide substrate (K9 Peptide; p70S6 Kinase Substrate; AnaSpec, San Jose, Calif.), 20 μM cold ATP, and 20 μCi γ-^32P-ATP. The reactions were incubated at 30° C. for 20 minutes and terminated by the addition of 0.5M o-Phosphoric acid. 10 μl of the reaction mixture was spotted on a P-30 Filtermat (PerkinElmer) and developed using autoradiography or phosphorimaging.

IC50 (CK2α2): 83.1 nM | IC50 (CDK9): 93.7 nM | IC50 (PIM1): 226 nM
Compound: O=C1Nc2cc(S(=O)(=O)Cc3c(Cl)cccc3Cl)ccc2S/C1=C\c1ccc(O)c([N+](=O)[O-])c1 [Compound 42, (Z)-6-((2,6-dichlorobenzyl)sulfonyl)-2-(4-hydroxy-3-nitrobenzylidene)-2H-benzo[b][1,4]thiazin-3(4H)-one]
IC50 ([1]; K562, 96 h treatment, lower limit of the IC50 range, or the IC50 itself (or its bound) where no Upper value is listed, read-out: K562 IC50 (μm) Lower (μm)): 100 nM | GI50 ([1]; K562, Chronic myelogenous leukemia): 160 nM | GI50 (MDA.MB-231): 120 nM | GI50 (MiaPaca 2): 90 nM | GI50 (22Rv1): 500 nM | GI50 (VCAP): 180 nM | GI50 (RPWE-1): 100 nM | GI50 (MCF10A): 2500 nM | GI50 (H23): 65 nM | GI50 (HCT-116): 150 nM | GI50 (Z138C): 70 nM | GI50 (U266B1): 100 nM
